Laboratory results as given in patent US20250066722A1, “METHODS FOR PRODUCTION OF FUNCTIONAL NEURONS” (AXENT BIOSCIENCES INC., priority 2021, published 2025).

Tested on: Human induced pluripotent stem cells (hPSCs)
Assay: 3D dopaminergic neuron differentiation of hPSCs with tyrosine hydroxylase immunocytochemistry
Format: cell-based
Conditions: for expression of tyrosine hydroxylase in differentiating aggregates: by day 20, immunocytochemistry, FGF8, TGF-β, BDNF, GDNF removed and replaced with BT-13 or Q525, FIGS. 3 and 5; for production of hPSC-derived neurons expressing the functional biomarker Tyrosine Hydroxylase: replacement of GDNF, BDNF and TGF-β in maturation media from Day 11, BT-13 5 μM or Q525 5 nM, with DAPT 10 uM, 3D AXgel
Protocol: Human Pluripotent Stem Cell Culture. Human […] (hPSCs) (ThermoFisher A 18945) were subcultured in monolayer format on a layer of 1% Matrigel and maintained in Essential 8 medium during expansion. At 80% confluency, H9s were passaged using Versene solution and replated at a 1:8 split.
3D hPSC Culture Seeding. hPSCs were dissociated into single cells using Accutase solution and resuspended in Essential 8 (E8) medium containing 10 μM Y-27632 (Rock Inhibitor, RI). hPSCs were counted and resuspended at defined densities in 11% AXgel on ice. Cells suspended in AXgel were dispensed into a multi-well tissue culture plate and heated to 37° C. for 15 minutes and afterward pre-warmed E8 medium containing 10 μM RI was added to each well. 3D cell suspensions remained in E8 with RI for 2 days (from Day −2 to Day 0).
3D Dopaminergic Neuron Differentiation. Starting Day 0, hPSCs in AXgel were transitioned to differentiation media to induce neural lineage commitment and subsequently specification into midbrain dopaminergic neurons. Starting Day 11, neural precursors were transitioned to maturation media containing GDNF agonist BT-13 (5 μM) or Q525 (5 nM) in place of proteins GDNF, BDNF, and TGF-β. Media formulations were according to Table 2: […]
Immunocytochemistry. At the endpoint of the experiment, cell aggregates were harvested from AXgel by replacing warm media with chilled media and plated on 8-chamber culture slides coated with 10 μg/mL laminin and cultured overnight in the incubator to allow aggregates to adhere to the surface. Aggregates attached to the culture slide were then fixed using 4% paraformaldehyde (PFA) for 15 minutes. Aggregates were washed twice in PBS for 5 minutes each and incubated in 0.25% Triton-X+5% donkey serum in PBS for 10 minutes to permeabilize cells. After permeabilization, aggregates were washed 5 times in 5% donkey serum for 5 minutes each and incubated with primary antibodies of interest diluted in PBS+donkey serum (dilution details in Table 3), and stored overnight at 4° C. After primary staining, aggregates were washed twice in PBS for 5 minutes each and incubated in solution containing the corresponding secondary antibodies (dilution details in Table 3), and incubated at 37° C. for 2 hours. After secondary staining, aggregates were washed twice in PBS for 5 minutes each and culture slides were mounted with a cover slip to be imaged.
Microscopy. Live cell aggregates suspended in AXgel were periodically imaged during the experiment using an EVOS XL Core Imaging System for transmitted light microscopy available in the Cell and Tissue Analysis Facility through QB3-Berkeley. Fixed, stained, and mounted cell aggregates were imaged with a 20× or 40× objective using a Perkin Elmer Opera Phenix automated confocal fluorescence microscope available in the High-Throughput Screening Facility through QB3-Berkeley. Laser exposure time and power was kept constant for a fluorescence channel within an imaging set.

Row | Structure (SMILES) | expression of tyrosine hydroxylase in differentiating aggregates | tyrosine hydroxylase-positive neurons (FIG. 5) (day 18, 10 nM Q525 in differentiation media free of GDNF, BDNF and TGFβ3, induction media without FGF8) | production of hPSC-derived neurons expressing the functional biomarker Tyrosine Hydroxylase
1 | O=C1C(Nc2ccc(CO)cc2)=C(O)C(=O)c2ncccc21 [Q525] | detected in neuronal cell bodies within all of the differentiating aggregates | tyrosine hydroxylase-positive neurons at day 18 | sufficient to produce hPSC-derived neurons expressing the functional biomarker Tyrosine Hydroxylase
2 | CCN(CC)S(=O)(=O)c1ccc(OC)c(N2CCN(C(=O)c3ccc(F)cc3C(F)(F)F)CC2)c1 [BT-13, N,N-diethyl-3-[4-[4-fluoro-2-(trifluoromethyl)-benzoyl]piperazin-1-yl]-4-methoxybenzenesulfonamide] | detected in neuronal cell bodies within all of the differentiating aggregates | – | sufficient to produce hPSC-derived neurons expressing the functional biomarker Tyrosine Hydroxylase
